Literature values as cited in patent US20230381309A1, “METHODS OF TREATING DIFFUSE LARGE B-CELL LYMPHOMA” (IMMUNOVACCINE TECHNOLOGIES INC., priority 2020, published 2023).
Like-named read-outs stand apart in the source and are kept apart here.

System: relapsed/refractory DLBCL

nivolumab: PD1 antibody (Opdivo; Bristol-Myers Squibb)
objective response rate (patients having failed autologous transplantation): 10%
objective response rate (patients ineligible for autologous transplantation): 3%
